For this assay, the system named is MN9D cells. Put plainly: Dopamine content of MN9D cells in monolayer culture after incubation with protein (HPLC). Type of assay: cell-based, mouse. The protocol: […] The MN9D cells on each plate were then collected in 10 ml of CMF, transferred to 15 ml centrifuge tubes and centrifuged at 1000×g for 5 min. The supernatant was removed and 600 μl of 0.5 N perchloric acid was added to the cell pellet which was then sonicated on ice for 10-15 s. The cell extract was centrifuged at 4000×g for 30 min and the supernatant stored at −80° C. for subsequent high pressure liquid chromatography (HPLC) analysis of MN9D cell dopamine content. The pellet was stored at −20° C. for subsequent protein analysis.
A second experiment was then conducted to determine whether this effect was due to a change in the doubling time (24 h) of the MN9D cells with increased cell production or was the result of an increase in cellular dopamine. […] Cells were removed from the plates and cell numbers determined by counting in a hematocytometer. Dopamine content was determined by HPLC analysis. […]
After this period, the MN9D cells on each plate are collected in 10 ml of CMF, transferred to 15 ml centrifuge tubes and centrifuged at 1000×g for 5 min. […] MN9D cell DA content is determined by reverse phase high pressure liquid chromatography with electrochemical detection (HPLC-ED) as previously described (Heller et al., 1993). […]

On to insulin growth factor II [IGF-II], for which the “effect on MN9D DA levels” value is “without effect”.

These data come from patent US20050148500A1, “Dopaminergic stimulatory factor” (priority 2001, published 2005).
